Measured values taken from patent US5411733A (priority 1992, dated 1995).
“And” between values parts separate entries of the source, which are not always exact repeats. Identical values can stand only once. Like-named read-outs stand apart in the source and are kept apart here.

Tests used:
[1] = Acv concentration in guinea pig blood; format: in vivo; details: for concentration at 1 h: serum, 200 mg, one hour
Experimental: An Acv suspension or a mixture of Acv and an extract solution of Cryt. f.# was orally or intragastrointestinally administered to a guinea pig. One hour from the administration, blood was taken from the heart, and an inactivated serum was prepared therefrom in the same manner as in Test Example 9.
(§1) To a 100 μl aliquot of the serum were added 100 μl of acetonitrile and 20 μl of a 100 mM sodium acetate solution, and the mixture was centrifuged (10000 rpm×10 mins.).
(§2) The sample solution was separated into Acv and adenine by reverse phase liquid chromatography in a usual manner. Each peak area was measured with an automatic integrator, and the Acv content was obtained from the previously prepared calibration curve.

[2] = Acv level in mouse blood (p.o.); format: in vivo, DDY male mouse
Experimental: as §1, §2
Further, 0.5 ml of an Acv preparation or 0.5 ml of a mixture of Acv and a varied concentration of Cryt. f.# extract solution was orally administered to a 6-week-old DDY male mouse, and the Acv concentration in blood was measured in the same manner as described above. […] Accordingly, the Cryt. f.# extract solution is believed to have antiherpesviral activity by itself.

[3] = test system: Herpes simplex virus type I (Seibert strain); assay: microbe, parasite or virus in culture; format: cell-based; details: read-out: Plaque Formation Efficiency, Acv
[4] = lung; cited from earlier work

Row | Compound | effect of Cryt. f.# on Acv absorption ([1]; Table 12) | concentration at 1 h ([1]; Acv (200 mg) + 1 mg/ml of Cryt. f.#, individual samples, read-out: Acv Concentration in Blood) [nM] | concentration at 1 h ([1]; Acv (200 mg) + 1 mg/ml of Cryt. f.#, read-out: Acv Concentration in Blood, Mean ± σ) [nM] | concentration at 1 h ([1]; Acv (200 mg) + 5 mg/ml of Cryt. f.#, individual samples, read-out: Acv Concentration in Blood) [nM] | concentration at 1 h ([1]; Acv (200 mg) + 5 mg/ml of Cryt. f.#, read-out: Acv Concentration in Blood, Mean ± σ) [nM] | concentration at 1 h ([1]; Acv (200 mg) + 20 mg/ml of Cryt. f.#, read-out: Acv Concentration in Blood, Mean ± σ) [nM] | concentration at 1 h ([1]; Acv (200 mg), read-out: Acv Concentration in Blood, Mean ± σ) [nM] | concentration ([2]; Acv (10 mg/kg) p.o., read-out: Acv Blood Level, Mean ± σ) [nM] | concentration ([2]; Acv (100 mg/kg) + 2 mg/ml of Cryt. f.#, p.o., individual samples, listed as Acv, 100 mg/kg, read-out: Acv Blood Level) | concentration ([2]; Acv (100 mg/kg) + 2 mg/ml of Cryt. f.#, p.o., read-out: Acv Blood Level, Mean ± σ) [nM] | concentration ([2]; Acv (100 mg/kg) + 10 mg/ml of Cryt. f.#, p.o., individual samples, listed as Acv, 100 mg/kg, read-out: Acv Blood Level) | concentration ([2]; Acv (100 mg/kg) + 10 mg/ml of Cryt. f.#, p.o., read-out: Acv Blood Level, Mean ± σ) [nM] | concentration ([2]; Acv (100 mg/kg) + 20 mg/ml of Cryt. f.#, p.o., read-out: Acv Blood Level, Mean ± σ) [nM] | effect of Cryt. f.# on Acv concentration in blood ([2]; mouse, Table 13) | activity at 0.35 µg/mL [3] [%] | distribution [4]
1 | Nc1nc2c(ncn2COCCO)c(=O)[nH]1 [Acyclovir, acyclovir] | it is not recognized that the Acv absorption was accelerated | 76400 | 92900 ± 31900 | 92900 | 88300 ± 17400 | 72200 ± 70400 | 88600 ± 85600 | 2280 ± 1490 | 1700 nM and 1400 nM and 1600 nM and 2500 nM and 4700 nM and 2900 nM and 2000 nM and 2400 nM and 9500 nM and 2300 nM | 3100 ± 2430 | 2300 nM and 1100 nM and 3500 nM and 1600 nM and 1900 nM and 2600 nM and 1500 nM and 5200 nM | 2460 ± 1330 | 2590 ± 1530 | no increase in Acv concentration in blood was observed | 53.6 | –
2 | C=CC[C@@H]1/C=C(\C)C[C@H](C)C[C@H](OC)[C@H]2O[C@@](O)(C(=O)C(=O)N3CCCC[C@H]3C(=O)O[C@H](/C(C)=C/[C@@H]3CC[C@@H](O)[C@H](OC)C3)[C@H](C)[C@@H](O)CC1=O)[C@H](C)C[C@@H]2OC [FK 506] | – | – | – | – | – | – | – | – | – | – | – | – | – | – | – | concentrated in the lung
